Experimental data reported in PMC12476894, “Identification of α‑Azacyclic Acetamide-Based Inhibitors of P. falciparum Na^+ Pump (PfATP4) with Fast-Killing Asexual Blood-Stage Antimalarial Activity by Phenotypic Screening” (ACS Infectious Diseases, 2025).
Like-named read-outs stand apart in the source and are kept apart here.

Legend:
[1] = tested on: P. falciparum NF54^luc parasites; assay: Luciferase reporter (LR) / BRRoK assay, PfNF54^luc; type: cell-based, Plasmodium falciparum; settings: Plasmodium falciparum, NF54, Hec50; luciferase reporter, 6 h
PfD10 attB = assay: 72 h SYBR Green growth inhibition, PfD10 attB; type: cell-based; settings: Plasmodium falciparum; 72 h SYBR Green assay
PfD10 attB + yDHODH = assay: 72 h SYBR Green growth inhibition, strain expressing yeast DHODH; type: cell-based; settings: Plasmodium falciparum, read-out: PfD10 attB + yDHODH EC50, 72 h SYBR Green assay
in vitro = in vitro ADME; settings: human liver microsomes, 1 µM compound, 0.4 mg/mL protein
[2] = tested on: Dd2 PfATP4^P412L mutant clones; assay: 72 h SYBR Green growth inhibition, 2-selected Dd2 clones with PfATP4 P412L (Phillips Lab); type: cell-based, Plasmodium falciparum; settings: for EC50: Plasmodium falciparum
Protocol: (§1) To confirm the MOA for the α-azacyclic acetamides against P. falciparum and to obtain potential information about whether or not they bind PfATP4 at an overlapping site with that of KAE609, we undertook resistance selections using PfDd2 parasites using the published cycling drug selection method. , α-Azacyclic acetamides 2 and 3 were chosen as representative examples of the pyrrole- and indole-based series, respectively. […] Additional cycles were performed at 20 × EC50, until resistant parasites were detected based on a fold change in EC50 compared to the parental clonal Dd2 line (Table S3). Resistant parasites were detected in the 2-selections in all 4 flasks after 4 pulses and for 3-selections in 3 flasks after 5 pulses. Clonal lines were generated from each flask, and one clone per flask was selected for WGS and EC50 determination (Tables S4 and S5). WGS analysis identified two single point mutations in PfATP4 that were not present in the original clonal Dd2 parasite line (Tables and S4). P412L was found in three of four flasks containing 2-selected resistance clones, and F917L was identified in all three flasks containing 3-selected clones and in the fourth flask containing 2-selected clones (Table S4). PfATP4 mutations identified by the WGS analysis in parasite lines were verified by PCR of the pfatp4 gene, followed by Sanger sequencing (Figures S5, S6 and Table S6). An additional protein coding gene (ribosomal protein S8e) was mutated in the 2-selections. However, this mutation was identified in only one of four sequenced clones and is therefore unlikely to be related to resistance to 2 (Figure S7). All three resistant clones derived from the 3-selections harbored an identical mutation in a gene (pfcpu) encoding a conserved protein of unknown function, which was absent in the parental line (Figure S8).
(§2) ABS P. falciparum 3D7, Dd2 or PfNF54^luc parasites (BEI resources) were cultured in RPMI 1640 medium (Millipore Sigma), supplemented with 25 mM HEPES, 0.5% Albumax-I (Thermo Scientific), 23 mM sodium bicarbonate, 92 μM hypoxanthine, and 10 μg/mL gentamicin sulfate at 37 °C, 5% CO2, using deidentified O^+ red blood cells (BioIVT) as previously described. − Growth inhibition assays were conducted in 96 well plate format using the SYBR Green or luciferase reporter assay depending on the strain with modifications as described , (see Supporting Information for a detailed description). Details for the luciferase reporter assay are described below under the BRRoK assay section.
(§3) EC50 and CC50 values were determined by nonlinear regression performed in GraphPad Prism Version 10. Unless otherwise specified, data were fitted to the log(inhibitor) vs response–variable slope with four parameters equation. […] For mutant cell lines and compound combinations where bottom plateau of zero growth was not reached, the bottom of the curve was defined at 0% based on background values obtained for parental Dd2 from the same study.
(§4) Resistant Dd2 parasites were selected using a high-pressure intermittent selection protocol using a previously described method. Selections were set up using 4 flasks per compound starting with approximately 3 × 10^9 parasites per flask (80 mL per flask, 4% hematocrit, 3% parasitemia at the beginning of each pulse, mostly ring-stage parasites via previous sorbitol synchronization. Pulse 1 and 2 (48 h) were conducted at 10xEC50, and subsequent pulses were conducted at 20xEC50. Parasites cleared within 48 h under these conditions. 3-Selections used a total of 4 pulses, while 2-selections required 5 pulses before resistant parasites emerged (Table S3). Culture media was replenished daily for a week after each pulse, then every 2 days with weekly replenishment of blood. Cultures were monitored by microscopy until recrudescence. Clonal parasites were obtained from each flask by limiting dilution and maintained in drug free RPMI-1640 media prior to being analyzed for EC50 shifts. […]

[3] = tested on: Dd2 PfATP4^F917L mutant clones; assay: 72 h SYBR Green growth inhibition, 2- or 3-selected Dd2 clones with PfATP4 F917L (Phillips Lab); type: cell-based, Plasmodium falciparum; settings: for EC50: Plasmodium falciparum
Protocol: as §1, §2, §3, §4

[4] = tested on: isolated Pf3D7 trophozoites, [Na+]cyt; assay: Measurement of P. falciparum cytosolic Na+ concentration (SBFI); type: cell-based, Plasmodium falciparum; settings: 1 μM
Protocol: Measurements were carried out in 96 well plates (excitation wavelengths: 340 and 380 nm; emission wavelength: 515 nm), as described previously. Fluorescence ratio values (340 nm/380 nm) were converted to [Na^+]cyt using a calibration procedure in which parasites were suspended in solutions of varying [Na^+] containing ionophores.

[5] = tested on: P. falciparum NF54^luc parasites; assay: Luciferase reporter (LR) / BRRoK assay, PfNF54^luc; type: cell-based; settings: Plasmodium falciparum, NF54, Hec50, 72 h
[6] = DD2, read-out: EC50, 2-resistant Flask 2 Clone F9
[7] = DD2, read-out: EC50, 2-resistant Flask 3 Clone F5
[8] = DD2, read-out: EC50, 2-resistant Flask 4 Clone E10
[9] = DD2, read-out: EC50, 2-selected flask #3 clone F5
[10] = DD2, read-out: EC50, 2-resistant Flask 1 Clone B6
[11] = DD2, read-out: EC50, 3-resistant Flask 2 Clone D10
[12] = DD2, read-out: EC50, 3-resistant Flask 3 Clone D8
[13] = DD2, read-out: EC50, 3-resistant Flask 4 Clone B3
[14] = DD2, read-out: EC50, 3-selected flask #3 clone D8

Cc1ccnc(NC(=O)Cn2cccc2-c2nc(-c3ccccc3)cs2)c1 [compound 2, N-(4-methylpyridin-2-yl)-2-(2-(4-phenylthiazol-2-yl)-1H-pyrrol-1-yl)acetamide]
EC50 [1]: 1.1 ± 0.09 µM
EC50 (PfD10 attB): 1.2 µM
EC50 (PfD10 attB + yDHODH): 0.99 µM
microsomal CLint (in vitro): > 866 µL/min/mg
EC50 [2, 6]: > 10 µM
EC50 [2, 7]: > 10 µM
EC50 [2, 8]: > 10 µM
EC50 [2, 9]: 29 ± 6.1 µM
Fold EC50 change compared to WT Dd2, 2-selected flask #3 clone F5 [2]: 35 fold
EC50 [3, 10]: 9.6 ± 2 µM
EC50 [3, 11]: > 10 µM
EC50 [3, 12]: > 10 µM
EC50 [3, 13]: > 10 µM
EC50 [3, 14]: 14 ± 0.78 µM
Fold EC50 change compared to WT Dd2, 3-selected flask #3 clone D8 [3]: 17 fold
increase in [Na+]cyt (in words) [4]: reduced response
EC50 [5]: 0.47 ± 0.051 µM

Cc1nn(CCNC(=O)Cn2c(C)c(C#N)c3ccccc32)c(C)c1Cl [compound 3, N-(2-(4-chloro-3,5-dimethyl-1H-pyrazol-1-yl)ethyl)-2-(3-cyano-2-methyl-1H-indol-1-yl)acetamide]
EC50 [1]: 1.6 ± 0.071 µM
EC50 (PfD10 attB): 1.3 µM
EC50 (PfD10 attB + yDHODH): 0.93 µM
microsomal CLint (in vitro): > 866 µL/min/mg
EC50 [2, 6]: > 10 µM
EC50 [2, 7]: > 10 µM
EC50 [2, 8]: > 10 µM
EC50 [2, 9]: 11 ± 1.8 µM
Fold EC50 change compared to WT Dd2, 2-selected flask #3 clone F5 [2]: 10 fold
EC50 [3, 10]: > 10 µM
EC50 [3, 11]: > 10 µM
EC50 [3, 12]: > 10 µM
EC50 [3, 13]: > 10 µM
EC50 [3, 14]: 28 ± 1.6 µM
Fold EC50 change compared to WT Dd2, 3-selected flask #3 clone D8 [3]: 25 fold
increase in [Na+]cyt (in words) [4]: reduced response
EC50 [5]: 0.72 ± 0.0031 µM
